{"source": "patent US11266655B2", "about": "“Methods and compositions for treating urea cycle disorders” (Camp4 Therapeutics Corporation, priority 2019, dated 2022)", "key": {"SLC25A13": {"test_system": "SLC25A13", "experiment": "RNA-seq of compound-treated primary human hepatocytes, SLC25A13 expression", "format": "cell-based", "conditions": "primary human hepatocytes, triplicate (Table 23, FIG. 15)"}, "CPS1 [1]": {"test_system": "CPS1", "experiment": "HSP90 or HSP70 inhibitors in primary human hepatocytes, CPS1 mRNA", "format": "cell-based", "conditions": "hepatocytes from Donor B, normalized to B2M", "procedure": "(§1) Additional small molecules that inhibit HSP90 or HSP70 were tested in primary human hepatocytes as described in Example 2. HSP90 or HSP70 inhibitors were tested in triplicate at 0.3 μM and 3 μM. The results are shown as the fold change (mRNA FC) in the mRNA levels of OTC and CPS1 genes after treatment compared to an untreated control (DMSO) and the standard deviation (SD). In addition, a dose titration experiment was performed with selected HSP90 inhibitors. Hepatocytes were incubated with increasing concentrations of HSP90 inhibitors and the changes in OTC and CPS1 expression quantified as previously described.\n(§2) HSP90 and HSP70 inhibitors were compared to confirm the role of HSP90 in modulating OTC and CPS1 expression. Hepatocytes from Donor B were incubated with various HSP90 inhibitors or an HSP70 inhibitor, Pifithrin-μ, and then harvested for mRNA quantification. OTC and CPS1 mRNA levels were normalized to B2M."}, "OTC [2]": {"test_system": "OTC", "experiment": "HSP90 or HSP70 inhibitors in primary human hepatocytes, OTC mRNA", "format": "cell-based", "conditions": "hepatocytes from Donor B, normalized to B2M", "procedure": "as §1, §2"}, "SLC25A15": {"test_system": "SLC25A15", "experiment": "RNA-seq of compound-treated primary human hepatocytes, SLC25A15 expression", "format": "cell-based", "conditions": "primary human hepatocytes, triplicate (Table 24, FIG. 16A-B)"}, "ASS1": {"test_system": "ASS1", "experiment": "RNA-seq of compound-treated primary human hepatocytes, ASS1 expression", "format": "cell-based", "conditions": "primary human hepatocytes, triplicate (Table 15, FIG. 7)"}, "OTC [3]": {"test_system": "OTC", "experiment": "OTC expression modulated by compounds, OTC/GeoMean of housekeeping genes, DMSO = 1 (Table 3A)", "format": "cell-based, human", "conditions": "10 uM final concentration"}, "CPS1 [4]": {"test_system": "CPS1", "experiment": "RNA-seq of compound-treated primary human hepatocytes, CPS1 expression", "format": "cell-based", "conditions": "3 μM, primary human hepatocytes, triplicate (Table 19, FIG. 11)"}, "OTC [5]": {"test_system": "OTC", "experiment": "JAK1 inhibitor dose titration in hepatocytes of donors A and B, OTC mRNA normalized to B2M", "format": "cell-based, human", "conditions": "normalized to B2M", "procedure": "(§3) Next, two JAK1 inhibitors were tested at increasing concentrations in a dose titration assy. Hepatocytes from two different donors (A and B) were incubated with the various concentrations of upadacitinib or oclacitinib maleate and harvested for mRNA analysis. OTC and CPS1 mRNA were normalized to house keeping gene B2M gene expression."}, "CPS1 [6]": {"test_system": "CPS1", "experiment": "JAK inhibitors at 0.3 and 3 μM in primary human hepatocytes, CPS1 mRNA fold change", "format": "cell-based", "conditions": "fold change vs DMSO", "procedure": "(§4) Additional small molecules that inhibit JAK1, JAK2, JAK3, or a combination of the JAK proteins were tested in primary human hepatocytes as described in Example 2. JAK inhibitors were tested in triplicate at 0.3 μM and 3 μM. The results are shown as the fold change (mRNA FC) in the mRNA levels of OTC and CPS1 genes after treatment compared to an untreated control (DMSO) and the standard deviation (SD)."}, "CPS1 [7]": {"test_system": "CPS1", "experiment": "JAK1 inhibitor dose titration in hepatocytes of donors A and B, CPS1 mRNA normalized to B2M", "format": "cell-based, human", "conditions": "normalized to B2M", "procedure": "as §3"}, "OTC [8]": {"test_system": "OTC", "experiment": "JAK inhibitors at 0.3 and 3 μM in primary human hepatocytes, OTC mRNA fold change", "format": "cell-based", "conditions": "fold change vs DMSO", "procedure": "as §4"}}, "note": "Structures can show the parent of a compound that is named as a salt.", "data": [{"smiles": "C=CCNC1=C2C[C@@H](C)C[C@H](OC)[C@H](O)[C@@H](C)/C=C(\\C)[C@H](OC(N)=O)[C@@H](OC)/C=C\\C=C(/C)C(=O)NC(=CC1=O)C2=O", "note": "[17-AAG (Tanespimycin), Tanespimycin]", "values": [{"measurement": "Relative SLC25A13 level vs Untreated (±Standard Deviation)", "setting": "SLC25A13; 0.3 μM", "result": "1.48 ± 0.01"}, {"measurement": "Relative SLC25A13 level vs Untreated (±Standard Deviation)", "setting": "SLC25A13; 1 μM", "result": "1.40 ± 0.05"}, {"measurement": "Relative SLC25A13 level vs Untreated (±Standard Deviation)", "setting": "SLC25A13; 3 μM", "result": "1.51 ± 0.09"}, {"measurement": "Relative SLC25A13 level vs Untreated (±Standard Deviation)", "setting": "SLC25A13; 10 μM", "result": "1.46 ± 0.14"}, {"measurement": "CPS1 Expression mRNA FC", "setting": "CPS1 [1]; 0.3 uM", "result": 1.79}, {"measurement": "CPS1 Expression mRNA FC", "setting": "CPS1 [1]; 3 uM", "result": 2.51}, {"measurement": "OTC Expression mRNA FC", "setting": "OTC [2]; 0.3 uM", "result": 5.01}, {"measurement": "OTC Expression mRNA FC", "setting": "OTC [2]; 3 uM", "result": 2.84}, {"measurement": "Relative SLC25A15 level vs Untreated (±Standard Deviation)", "setting": "SLC25A15; 0.3 μM", "result": "1.48 ± 0.01"}, {"measurement": "Relative SLC25A15 level vs Untreated (±Standard Deviation)", "setting": "SLC25A15; 1 μM", "result": "1.40 ± 0.05"}, {"measurement": "Relative SLC25A15 level vs Untreated (±Standard Deviation)", "setting": "SLC25A15; 3 μM", "result": "1.51 ± 0.09"}, {"measurement": "Relative SLC25A15 level vs Untreated (±Standard Deviation)", "setting": "SLC25A15; 10 μM", "result": "1.46 ± 0.14"}, {"measurement": "Relative ASS1 level vs Untreated (±Standard Deviation)", "setting": "ASS1; 0.3 μM", "result": "1.37 ± 0.11"}, {"measurement": "Relative ASS1 level vs Untreated (±Standard Deviation)", "setting": "ASS1; 1 μM", "result": "1.46 ± 0.07"}]}, {"smiles": "CC1(C)CC(=O)c2c(C(F)(F)F)nn(-c3ccc(C(N)=O)c(N[C@H]4CC[C@H](OC(=O)CN)CC4)c3)c2C1", "note": "[PF-04929113 (SNX-5422)]", "values": [{"measurement": "Max Value (OTC/GeoMean of HKs; DMSO = 1)", "setting": "OTC [3]", "result": 1.73}]}, {"smiles": "Cc1cc(Nc2cc(CN3CCOCC3)c3nc(C)c(Cc4ccc(Cl)cc4F)n3n2)n[nH]1", "note": "[LY2784544]", "values": [{"measurement": "Max Value (OTC/GeoMean of HKs; DMSO = 1)", "setting": "OTC [3]", "result": 2.78}]}, {"smiles": "CSCC[C@H](N)C(=O)N[C@@]1(C(=O)O)CS(=O)(=O)[C@H]2[C@H](C(=O)O)[C@H]21", "note": "[pomaglumetad methionil]", "values": [{"measurement": "Max Value (OTC/GeoMean of HKs; DMSO = 1)", "setting": "OTC [3]", "result": 1.49}]}, {"smiles": "CC1(C)CC(=O)c2c(C(F)(F)F)nn(-c3ccc(C(N)=O)c(N[C@H]4CC[C@H](OC(=O)CN)CC4)c3)c2C1", "note": "[PF-04929113]", "values": [{"measurement": "Relative CPS1 level vs Untreated (±Standard Deviation)", "setting": "CPS1 [4]", "result": "1.38 ± 0.13"}, {"measurement": "CPS1 Expression mRNA FC", "setting": "CPS1 [1]; 0.3 uM", "result": 1.62}, {"measurement": "CPS1 Expression mRNA FC", "setting": "CPS1 [1]; 3 uM", "result": 2.09}, {"measurement": "OTC Expression mRNA FC", "setting": "OTC [2]; 0.3 uM", "result": 1.77}, {"measurement": "OTC Expression mRNA FC", "setting": "OTC [2]; 3 uM", "result": 4.28}]}, {"smiles": "CC[C@@H]1CN(C(=O)NCC(F)(F)F)C[C@@H]1c1cnc2cnc3[nH]ccc3n12", "note": "[upadacitinib]", "values": [{"measurement": "OTC mRNA FC, Donor A", "setting": "OTC [5]; 0.1 uM", "result": 1.36}, {"measurement": "OTC mRNA FC, Donor B", "setting": "OTC [5]; 0.1 uM", "result": 1.56}, {"measurement": "OTC mRNA FC, Donor A", "setting": "OTC [5]; 0.3 uM", "result": 1.99}, {"measurement": "OTC mRNA FC, Donor B", "setting": "OTC [5]; 0.3 uM", "result": 2.06}, {"measurement": "OTC mRNA FC, Donor A", "setting": "OTC [5]; 1 uM", "result": 3.17}, {"measurement": "OTC mRNA FC, Donor B", "setting": "OTC [5]; 1 uM", "result": 3.54}, {"measurement": "OTC mRNA FC, Donor A", "setting": "OTC [5]; 3 uM", "result": 4.81}, {"measurement": "OTC mRNA FC, Donor B", "setting": "OTC [5]; 3 uM", "result": 4.66}, {"measurement": "OTC mRNA FC, Donor A", "setting": "OTC [5]; 10 uM", "result": 6.77}, {"measurement": "OTC mRNA FC, Donor B", "setting": "OTC [5]; 10 uM", "result": 9.39}, {"measurement": "CPS1 mRNA FC", "setting": "CPS1 [6]; 0.3 uM", "result": 2.02}, {"measurement": "CPS1 mRNA FC", "setting": "CPS1 [6]; 3 uM", "result": 1.39}, {"measurement": "CPS1 mRNA FC, Donor A", "setting": "CPS1 [7]; 0.1 uM", "result": 1.26}, {"measurement": "CPS1 mRNA FC, Donor B", "setting": "CPS1 [7]; 0.1 uM", "result": 3.74}, {"measurement": "CPS1 mRNA FC, Donor A", "setting": "CPS1 [7]; 0.3 uM", "result": 1.58}, {"measurement": "CPS1 mRNA FC, Donor B", "setting": "CPS1 [7]; 0.3 uM", "result": 2.54}, {"measurement": "CPS1 mRNA FC, Donor A", "setting": "CPS1 [7]; 1 uM", "result": 2.70}, {"measurement": "CPS1 mRNA FC, Donor B", "setting": "CPS1 [7]; 1 uM", "result": 2.38}, {"measurement": "CPS1 mRNA FC, Donor A", "setting": "CPS1 [7]; 3 uM", "result": 3.15}, {"measurement": "CPS1 mRNA FC, Donor B", "setting": "CPS1 [7]; 3 uM", "result": 1.43}, {"measurement": "CPS1 mRNA FC, Donor A", "setting": "CPS1 [7]; 10 uM", "result": 4.25}, {"measurement": "CPS1 mRNA FC, Donor B", "setting": "CPS1 [7]; 10 uM", "result": 1.21}, {"measurement": "OTC mRNA FC", "setting": "OTC [8]; 0.3 uM", "result": 2.91}, {"measurement": "OTC mRNA FC", "setting": "OTC [8]; 3 uM", "result": 2.75}]}, {"smiles": "CO[C@H]1/C=C\\C=C(/C)C(=O)NC2=CC(=O)C(NCCN(C)C)=C(C[C@@H](C)C[C@H](OC)[C@H](O)[C@@H](C)/C=C(\\C)[C@@H]1OC(N)=O)C2=O", "note": "[Alvespimycin]", "values": [{"measurement": "CPS1 Expression mRNA FC", "setting": "CPS1 [1]; 0.3 uM", "result": 2.33}, {"measurement": "CPS1 Expression mRNA FC", "setting": "CPS1 [1]; 3 uM", "result": 1.94}, {"measurement": "OTC Expression mRNA FC", "setting": "OTC [2]; 0.3 uM", "result": 3.03}, {"measurement": "OTC Expression mRNA FC", "setting": "OTC [2]; 3 uM", "result": 1.57}]}, {"smiles": "N#CC(C#N)=NNc1cccc(Cl)c1", "note": "[CCCP]", "values": [{"measurement": "Max Value (OTC/GeoMean of HKs; DMSO = 1)", "setting": "OTC [3]", "result": 4.06}]}, {"smiles": "CO[C@H]1/C=C\\C=C(/C)C(=O)NC2=CC(=O)C(NCCN(C)C)=C(C[C@@H](C)C[C@H](OC)[C@H](O)[C@@H](C)/C=C(\\C)[C@@H]1OC(N)=O)C2=O", "note": "[Alvespimycin hydrochloride]", "values": [{"measurement": "CPS1 Expression mRNA FC", "setting": "CPS1 [1]; 0.3 uM", "result": 1.41}, {"measurement": "CPS1 Expression mRNA FC", "setting": "CPS1 [1]; 3 uM", "result": 1.54}, {"measurement": "OTC Expression mRNA FC", "setting": "OTC [2]; 0.3 uM", "result": 1.94}, {"measurement": "OTC Expression mRNA FC", "setting": "OTC [2]; 3 uM", "result": 1.03}]}]}
